In ChEMBL document CHEMBL5212743, “Selectivity Literature for EUbOPEN Chemogenomics Library wave 3” (2023):

Tests used:
[1] = target: Mitotic checkpoint serine/threonine-protein kinase BUB1 (Homo sapiens) (UniProt O43683); experiment: Selectivity interaction (GPCR panel (PDSP screen)) EUB0000540a BUB1; details: at 1 µM
[2] = target: 5-hydroxytryptamine receptor 2B (Homo sapiens, UniProt P41595); experiment: Selectivity interaction (GPCR panel (PDSP screen)) EUB0000540a HTR2B
[3] = target: T1, Mitogen-activated protein kinase kinase kinase 13 (Homo sapiens) (UniProt O43283); experiment: Selectivity interaction (KinomeScan (DiscoverX)) EUB0000540a MAP3K13; details: at 1 µM
T1 sequence (whole entry): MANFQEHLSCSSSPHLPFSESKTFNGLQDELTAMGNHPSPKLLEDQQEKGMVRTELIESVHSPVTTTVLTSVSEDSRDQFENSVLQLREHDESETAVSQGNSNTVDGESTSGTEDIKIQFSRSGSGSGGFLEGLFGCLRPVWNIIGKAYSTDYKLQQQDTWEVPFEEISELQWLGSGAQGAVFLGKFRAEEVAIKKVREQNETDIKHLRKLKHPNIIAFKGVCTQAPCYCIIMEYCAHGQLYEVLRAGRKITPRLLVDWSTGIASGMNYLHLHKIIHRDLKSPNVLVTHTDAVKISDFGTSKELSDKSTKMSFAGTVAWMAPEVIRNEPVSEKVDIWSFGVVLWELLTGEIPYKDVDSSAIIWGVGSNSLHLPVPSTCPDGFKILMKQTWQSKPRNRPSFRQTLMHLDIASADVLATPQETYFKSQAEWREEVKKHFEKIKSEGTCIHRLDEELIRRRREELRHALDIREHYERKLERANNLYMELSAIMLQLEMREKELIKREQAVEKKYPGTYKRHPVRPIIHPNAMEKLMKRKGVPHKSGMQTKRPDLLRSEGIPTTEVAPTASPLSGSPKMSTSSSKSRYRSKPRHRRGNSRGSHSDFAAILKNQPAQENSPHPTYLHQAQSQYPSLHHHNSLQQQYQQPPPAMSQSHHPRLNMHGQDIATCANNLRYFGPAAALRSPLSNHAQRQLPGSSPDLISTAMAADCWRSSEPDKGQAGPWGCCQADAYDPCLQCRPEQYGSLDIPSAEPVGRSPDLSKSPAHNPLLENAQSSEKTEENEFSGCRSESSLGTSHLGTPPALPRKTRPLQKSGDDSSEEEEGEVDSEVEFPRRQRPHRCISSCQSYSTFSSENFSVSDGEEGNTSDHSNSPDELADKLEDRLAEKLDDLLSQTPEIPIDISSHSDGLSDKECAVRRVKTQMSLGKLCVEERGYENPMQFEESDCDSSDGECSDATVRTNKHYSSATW

[4] = target: T2, Alpha-2C adrenergic receptor (Homo sapiens, UniProt P18825); experiment: Selectivity interaction (GPCR panel (PDSP screen)) EUB0000540a ADRA2C
T2 sequence (P18825 whole entry): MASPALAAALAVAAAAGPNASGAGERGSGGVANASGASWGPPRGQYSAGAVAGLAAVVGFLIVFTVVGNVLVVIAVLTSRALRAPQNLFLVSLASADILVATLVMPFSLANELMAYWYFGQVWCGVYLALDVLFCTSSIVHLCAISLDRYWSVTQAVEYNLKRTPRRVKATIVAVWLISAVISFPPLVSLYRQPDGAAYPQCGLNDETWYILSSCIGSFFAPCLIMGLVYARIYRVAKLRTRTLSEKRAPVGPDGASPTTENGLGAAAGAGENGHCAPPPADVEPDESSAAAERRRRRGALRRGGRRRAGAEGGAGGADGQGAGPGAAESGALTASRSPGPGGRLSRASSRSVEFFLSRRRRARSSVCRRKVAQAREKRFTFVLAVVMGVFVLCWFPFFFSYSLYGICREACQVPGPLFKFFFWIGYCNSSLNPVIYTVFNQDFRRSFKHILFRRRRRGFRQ

[5] = target: 5-hydroxytryptamine receptor 2C (Homo sapiens, UniProt P28335); experiment: Selectivity interaction (GPCR panel (PDSP screen)) EUB0000540a HTR2C
Chain of 5-hydroxytryptamine receptor 2C (P28335 whole entry): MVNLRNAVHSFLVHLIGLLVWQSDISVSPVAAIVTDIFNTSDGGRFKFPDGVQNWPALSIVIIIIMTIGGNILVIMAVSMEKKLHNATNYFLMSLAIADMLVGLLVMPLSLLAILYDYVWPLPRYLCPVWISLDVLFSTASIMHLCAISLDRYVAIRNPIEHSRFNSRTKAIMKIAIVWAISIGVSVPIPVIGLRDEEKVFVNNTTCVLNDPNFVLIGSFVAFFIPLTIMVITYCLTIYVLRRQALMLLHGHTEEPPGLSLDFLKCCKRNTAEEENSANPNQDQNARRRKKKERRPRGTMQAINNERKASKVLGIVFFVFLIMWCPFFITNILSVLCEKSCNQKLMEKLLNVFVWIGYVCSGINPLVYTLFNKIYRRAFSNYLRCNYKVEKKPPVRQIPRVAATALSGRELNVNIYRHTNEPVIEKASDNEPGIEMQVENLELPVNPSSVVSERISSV

[6] = target: Sigma intracellular receptor 2 (Homo sapiens, UniProt Q5BJF2); experiment: Selectivity interaction (GPCR panel (PDSP screen)) EUB0000540a TMEM97
Chain of Sigma intracellular receptor 2 (Q5BJF2 whole entry): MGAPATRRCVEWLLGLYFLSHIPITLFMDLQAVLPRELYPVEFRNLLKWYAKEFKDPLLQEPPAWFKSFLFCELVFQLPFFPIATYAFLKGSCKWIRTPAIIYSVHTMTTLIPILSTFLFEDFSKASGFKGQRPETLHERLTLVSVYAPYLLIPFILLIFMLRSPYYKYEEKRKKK

[7] = target: Serine/threonine-protein kinase WNK2 (Homo sapiens) (UniProt Q9Y3S1); experiment: Selectivity interaction (GPCR panel (PDSP screen)) EUB0000540a WNK2; details: at 1 µM
Chain of Serine/threonine-protein kinase WNK2 (Homo sapiens) (Q9Y3S1 whole entry): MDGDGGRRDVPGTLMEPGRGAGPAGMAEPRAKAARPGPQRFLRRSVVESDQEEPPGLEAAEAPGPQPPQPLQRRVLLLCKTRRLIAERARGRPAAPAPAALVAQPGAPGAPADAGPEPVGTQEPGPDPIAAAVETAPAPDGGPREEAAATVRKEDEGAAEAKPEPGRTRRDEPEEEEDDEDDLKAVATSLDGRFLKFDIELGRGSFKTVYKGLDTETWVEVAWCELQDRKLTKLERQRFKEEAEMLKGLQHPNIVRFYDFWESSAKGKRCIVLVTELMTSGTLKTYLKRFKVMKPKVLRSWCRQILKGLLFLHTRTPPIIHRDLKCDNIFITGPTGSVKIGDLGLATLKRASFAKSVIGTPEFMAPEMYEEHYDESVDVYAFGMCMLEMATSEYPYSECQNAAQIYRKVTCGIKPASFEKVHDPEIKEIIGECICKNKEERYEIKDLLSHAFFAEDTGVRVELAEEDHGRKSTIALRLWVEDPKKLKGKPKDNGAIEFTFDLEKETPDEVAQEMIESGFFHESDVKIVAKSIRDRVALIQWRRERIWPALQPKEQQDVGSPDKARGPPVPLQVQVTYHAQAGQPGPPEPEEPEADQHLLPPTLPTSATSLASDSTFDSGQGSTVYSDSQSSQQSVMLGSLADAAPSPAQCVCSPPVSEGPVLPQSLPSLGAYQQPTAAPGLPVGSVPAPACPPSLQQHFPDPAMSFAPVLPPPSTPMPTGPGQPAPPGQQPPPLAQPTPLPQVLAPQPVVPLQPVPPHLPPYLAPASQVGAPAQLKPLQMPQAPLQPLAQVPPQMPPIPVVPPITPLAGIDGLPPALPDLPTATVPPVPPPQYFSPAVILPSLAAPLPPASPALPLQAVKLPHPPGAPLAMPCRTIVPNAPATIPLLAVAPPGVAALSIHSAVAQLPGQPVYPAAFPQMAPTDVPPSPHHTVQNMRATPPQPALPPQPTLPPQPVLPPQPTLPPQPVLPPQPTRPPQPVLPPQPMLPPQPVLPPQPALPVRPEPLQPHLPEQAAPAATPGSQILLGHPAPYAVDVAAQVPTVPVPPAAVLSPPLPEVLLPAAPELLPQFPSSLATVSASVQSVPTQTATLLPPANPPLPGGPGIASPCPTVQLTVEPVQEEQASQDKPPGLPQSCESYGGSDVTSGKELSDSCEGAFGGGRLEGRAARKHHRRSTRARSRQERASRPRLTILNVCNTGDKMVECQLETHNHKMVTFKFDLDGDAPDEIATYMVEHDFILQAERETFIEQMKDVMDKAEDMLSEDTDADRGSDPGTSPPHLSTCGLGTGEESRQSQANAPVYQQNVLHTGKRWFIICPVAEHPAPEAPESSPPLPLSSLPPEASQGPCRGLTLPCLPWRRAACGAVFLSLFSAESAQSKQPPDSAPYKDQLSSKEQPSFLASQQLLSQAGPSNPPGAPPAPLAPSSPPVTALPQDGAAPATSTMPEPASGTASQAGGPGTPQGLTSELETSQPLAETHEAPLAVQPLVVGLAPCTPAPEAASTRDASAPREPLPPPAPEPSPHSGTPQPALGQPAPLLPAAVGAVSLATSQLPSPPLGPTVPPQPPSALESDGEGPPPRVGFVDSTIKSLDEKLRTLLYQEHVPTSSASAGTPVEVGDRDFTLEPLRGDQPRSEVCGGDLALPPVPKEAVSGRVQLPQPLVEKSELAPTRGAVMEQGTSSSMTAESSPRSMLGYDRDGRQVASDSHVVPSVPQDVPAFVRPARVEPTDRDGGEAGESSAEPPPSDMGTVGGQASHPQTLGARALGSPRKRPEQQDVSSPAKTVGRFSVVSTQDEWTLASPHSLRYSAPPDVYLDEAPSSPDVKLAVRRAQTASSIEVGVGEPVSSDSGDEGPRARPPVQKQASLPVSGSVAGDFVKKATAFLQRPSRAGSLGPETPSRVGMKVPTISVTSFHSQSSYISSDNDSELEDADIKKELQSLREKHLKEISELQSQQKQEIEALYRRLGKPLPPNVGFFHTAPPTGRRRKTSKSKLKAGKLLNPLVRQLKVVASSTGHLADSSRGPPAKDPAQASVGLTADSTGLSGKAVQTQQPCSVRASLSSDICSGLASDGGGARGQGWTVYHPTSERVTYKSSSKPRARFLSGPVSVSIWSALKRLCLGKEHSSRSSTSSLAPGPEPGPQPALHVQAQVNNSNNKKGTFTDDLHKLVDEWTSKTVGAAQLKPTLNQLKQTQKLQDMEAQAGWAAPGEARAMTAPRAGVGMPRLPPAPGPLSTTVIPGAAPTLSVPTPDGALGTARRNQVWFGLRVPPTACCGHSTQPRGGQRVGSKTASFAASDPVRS

[8] = target: Sigma non-opioid intracellular receptor 1 (Homo sapiens, UniProt Q99720); experiment: Selectivity interaction (GPCR panel (PDSP screen)) EUB0000540a SIGMAR1
[9] = target: 5-hydroxytryptamine receptor 2A (Homo sapiens, UniProt P28223); experiment: Selectivity interaction (GPCR panel (PDSP screen)) EUB0000540a HTR2A
[10] = target: T3, Gamma-aminobutyric acid receptor subunit alpha-1 (Homo sapiens, UniProt P14867); experiment: Selectivity interaction (GPCR panel (PDSP screen)) EUB0000540a GABRA1
T3 sequence (P14867 whole entry): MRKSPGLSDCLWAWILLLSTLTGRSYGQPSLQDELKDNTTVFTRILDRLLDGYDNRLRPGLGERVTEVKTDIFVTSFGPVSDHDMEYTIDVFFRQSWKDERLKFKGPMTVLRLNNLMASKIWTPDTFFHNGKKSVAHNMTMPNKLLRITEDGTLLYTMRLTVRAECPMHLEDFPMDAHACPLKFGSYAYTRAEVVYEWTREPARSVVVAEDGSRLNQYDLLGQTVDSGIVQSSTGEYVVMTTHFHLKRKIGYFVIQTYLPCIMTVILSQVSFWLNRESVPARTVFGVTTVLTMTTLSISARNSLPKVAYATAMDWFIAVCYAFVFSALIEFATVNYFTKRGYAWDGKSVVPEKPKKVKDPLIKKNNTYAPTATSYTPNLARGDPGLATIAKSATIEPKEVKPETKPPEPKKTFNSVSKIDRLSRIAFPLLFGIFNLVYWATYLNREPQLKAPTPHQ

[11] = target: Phosphatidylinositol 4,5-bisphosphate 3-kinase catalytic subunit alpha isoform (Homo sapiens, UniProt P42336); experiment: Selectivity interaction (KinomeScan (DiscoverX)) EUB0000351a PIK3CA; details: at 1 µM
[12] = target: T4, Serine/threonine-protein kinase TAO3 (Homo sapiens) (UniProt Q9H2K8); experiment: Selectivity interaction (KinomeScan (DiscoverX)) EUB0000351a TAOK3; details: at 1 µM
T4 sequence (whole entry): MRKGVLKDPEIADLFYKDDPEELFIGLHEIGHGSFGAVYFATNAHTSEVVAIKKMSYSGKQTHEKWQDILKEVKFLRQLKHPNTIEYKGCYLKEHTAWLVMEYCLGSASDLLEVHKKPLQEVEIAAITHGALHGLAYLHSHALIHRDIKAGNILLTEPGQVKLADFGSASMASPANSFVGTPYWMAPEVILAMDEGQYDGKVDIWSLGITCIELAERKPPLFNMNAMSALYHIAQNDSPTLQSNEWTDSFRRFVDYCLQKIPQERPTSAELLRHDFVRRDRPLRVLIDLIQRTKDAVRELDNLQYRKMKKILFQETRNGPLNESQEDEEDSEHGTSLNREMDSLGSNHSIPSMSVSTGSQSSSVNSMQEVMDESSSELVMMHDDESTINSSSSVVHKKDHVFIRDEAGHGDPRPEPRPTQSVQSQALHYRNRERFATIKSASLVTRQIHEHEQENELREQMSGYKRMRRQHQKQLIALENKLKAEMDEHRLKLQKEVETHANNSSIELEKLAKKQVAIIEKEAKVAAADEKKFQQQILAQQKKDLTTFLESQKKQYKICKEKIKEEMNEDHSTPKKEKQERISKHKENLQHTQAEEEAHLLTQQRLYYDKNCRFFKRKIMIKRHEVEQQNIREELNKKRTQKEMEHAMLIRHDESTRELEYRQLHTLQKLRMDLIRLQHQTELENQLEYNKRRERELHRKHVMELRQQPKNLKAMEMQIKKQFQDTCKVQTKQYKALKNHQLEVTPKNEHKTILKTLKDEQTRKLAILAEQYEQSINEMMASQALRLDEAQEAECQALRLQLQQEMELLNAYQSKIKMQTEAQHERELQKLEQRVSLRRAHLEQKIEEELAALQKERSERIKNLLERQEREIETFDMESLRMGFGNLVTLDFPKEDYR

D(3) dopamine receptor = D(3) dopamine receptor (Homo sapiens, UniProt P35462); experiment: Selectivity interaction (GPCR panel (PDSP screen)) EUB0000351a DRD3; details: at 10 µM
Chain of D(3) dopamine receptor (P35462 whole entry): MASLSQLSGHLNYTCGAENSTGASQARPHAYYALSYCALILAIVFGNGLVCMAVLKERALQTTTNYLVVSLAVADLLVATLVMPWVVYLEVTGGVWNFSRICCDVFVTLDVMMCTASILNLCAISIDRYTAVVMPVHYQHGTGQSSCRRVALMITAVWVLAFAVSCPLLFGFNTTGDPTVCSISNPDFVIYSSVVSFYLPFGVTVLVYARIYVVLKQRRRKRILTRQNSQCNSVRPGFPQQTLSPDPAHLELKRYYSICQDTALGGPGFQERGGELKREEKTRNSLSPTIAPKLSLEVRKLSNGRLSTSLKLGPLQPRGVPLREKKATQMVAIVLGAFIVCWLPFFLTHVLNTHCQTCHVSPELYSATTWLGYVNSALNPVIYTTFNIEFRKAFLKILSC

[13] = target: cGMP-inhibited 3',5'-cyclic phosphodiesterase 3A (Homo sapiens, UniProt Q14432); experiment: Selectivity interaction (CEREP ligand profiling ) EUB0000351a PDE3A
Chain of cGMP-inhibited 3',5'-cyclic phosphodiesterase 3A (Q14432 whole entry): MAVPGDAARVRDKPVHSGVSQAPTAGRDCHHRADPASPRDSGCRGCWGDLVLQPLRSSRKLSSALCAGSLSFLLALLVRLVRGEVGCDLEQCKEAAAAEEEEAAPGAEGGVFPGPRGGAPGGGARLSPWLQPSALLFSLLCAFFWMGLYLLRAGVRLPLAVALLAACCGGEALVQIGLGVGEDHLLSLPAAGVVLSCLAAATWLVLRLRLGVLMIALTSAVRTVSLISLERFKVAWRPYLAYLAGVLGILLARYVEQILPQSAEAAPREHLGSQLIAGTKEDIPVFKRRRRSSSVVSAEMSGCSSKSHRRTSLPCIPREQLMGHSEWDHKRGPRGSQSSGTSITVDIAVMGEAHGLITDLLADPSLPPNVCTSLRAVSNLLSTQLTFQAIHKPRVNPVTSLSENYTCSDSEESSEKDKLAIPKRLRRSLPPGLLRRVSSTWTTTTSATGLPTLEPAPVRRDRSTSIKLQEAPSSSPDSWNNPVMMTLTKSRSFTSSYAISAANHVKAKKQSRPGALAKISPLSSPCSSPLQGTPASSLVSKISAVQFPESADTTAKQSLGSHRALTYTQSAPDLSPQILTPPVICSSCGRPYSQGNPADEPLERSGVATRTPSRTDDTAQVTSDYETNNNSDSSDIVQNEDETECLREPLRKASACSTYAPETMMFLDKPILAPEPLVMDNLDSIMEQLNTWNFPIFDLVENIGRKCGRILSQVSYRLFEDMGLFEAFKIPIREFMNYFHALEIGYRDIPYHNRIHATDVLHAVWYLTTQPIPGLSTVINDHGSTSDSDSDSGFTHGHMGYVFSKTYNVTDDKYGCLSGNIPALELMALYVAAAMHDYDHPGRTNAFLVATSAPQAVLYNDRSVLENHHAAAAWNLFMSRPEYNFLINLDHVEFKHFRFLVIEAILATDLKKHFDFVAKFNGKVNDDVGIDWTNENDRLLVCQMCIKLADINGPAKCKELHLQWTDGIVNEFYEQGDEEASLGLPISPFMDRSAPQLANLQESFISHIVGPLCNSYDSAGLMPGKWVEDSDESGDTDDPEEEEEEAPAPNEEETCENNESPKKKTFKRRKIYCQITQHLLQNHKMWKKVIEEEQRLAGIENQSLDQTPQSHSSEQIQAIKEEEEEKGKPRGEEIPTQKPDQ

[14] = target: 5'-AMP-activated protein kinase catalytic subunit alpha-2 (Homo sapiens) (UniProt P54646); experiment: Selectivity interaction (KinomeScan (DiscoverX)) EUB0000351a PRKAA2; details: at 1 µM

Chain of 5-hydroxytryptamine receptor 2B (P41595 whole entry): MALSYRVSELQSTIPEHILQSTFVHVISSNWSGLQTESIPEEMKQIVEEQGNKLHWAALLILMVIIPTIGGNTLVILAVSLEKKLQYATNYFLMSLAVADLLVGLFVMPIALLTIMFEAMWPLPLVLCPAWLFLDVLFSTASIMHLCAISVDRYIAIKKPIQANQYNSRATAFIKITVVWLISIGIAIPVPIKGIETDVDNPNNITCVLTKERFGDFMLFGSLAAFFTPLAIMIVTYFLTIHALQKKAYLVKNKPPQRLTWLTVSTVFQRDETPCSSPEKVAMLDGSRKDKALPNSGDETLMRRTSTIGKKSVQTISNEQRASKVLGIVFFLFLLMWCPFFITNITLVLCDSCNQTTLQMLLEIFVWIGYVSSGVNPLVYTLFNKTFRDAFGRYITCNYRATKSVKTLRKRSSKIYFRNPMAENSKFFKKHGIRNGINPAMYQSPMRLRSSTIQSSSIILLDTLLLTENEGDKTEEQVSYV

Work on O=C(Nc1cccnn1)N1CC(C/C=C/c2cncc(Oc3ccc(C(F)(F)F)cn3)n2)C1 yielded a % of control [1] of 1.4%, a Ki [2] of 1340 nM and a % of control [3] of 0%. For the same compound, the Ki [4] was 596 nM, the Ki [5] was 1660 nM and the Ki [6] was 437 nM. For the same compound, the % of control [7] was 0%, the Ki [8] was 472 nM and the Ki [9] was 249 nM. It also gave a Ki [10] of 1140 nM.

COc1ccc2cc(OCC3(C(=O)O)CN(C(=O)c4ccc(F)cc4)C3)ccc2c1 [PF-04418948] was tested, and the % of control [11] was 42%, the % of control [12] was 35% and the % of inhibition (D(3) dopamine receptor) was 33%. For the same compound, the IC50 [13] was 3.5 µM and the % of control [14] was 28%.
